Test results from patent publication US20240246964A1 (Arbutus Biopharma Corporation, priority 2021, published 2024).

Legend:
human PD-L1 = human PD-L1 (Homo sapiens (Human), UniProt Q9NZQ7); assay: T cell activation luciferase reporter cell culture system (T Cell Activation Assay); assay type: cell-based; details: luciferase reporter assay; PD-L1 aAPC/CHO-K1 cells with PD-1 effector Jurkat T cells
[1] = molecular target: PD-L1 His protein / PD-1 Fc protein (Homo sapiens (Human), UniProt Q9NZQ7); assay: HTRF Assay (PD-1/PD-L1 interaction); assay type: binding; details: PD-L1 His 6 nM, PD-1 Fc 6 nM
PD-L1 His protein / PD-1 Fc protein, sequence (Q9NZQ7 19-238): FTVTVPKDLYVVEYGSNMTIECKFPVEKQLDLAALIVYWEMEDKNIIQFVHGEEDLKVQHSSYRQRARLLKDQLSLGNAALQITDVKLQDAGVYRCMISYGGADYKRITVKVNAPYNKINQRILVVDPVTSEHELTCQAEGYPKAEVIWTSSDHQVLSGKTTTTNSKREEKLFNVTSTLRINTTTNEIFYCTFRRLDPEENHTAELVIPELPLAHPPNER

human PD-L1, sequence (Q9NZQ7 19-290): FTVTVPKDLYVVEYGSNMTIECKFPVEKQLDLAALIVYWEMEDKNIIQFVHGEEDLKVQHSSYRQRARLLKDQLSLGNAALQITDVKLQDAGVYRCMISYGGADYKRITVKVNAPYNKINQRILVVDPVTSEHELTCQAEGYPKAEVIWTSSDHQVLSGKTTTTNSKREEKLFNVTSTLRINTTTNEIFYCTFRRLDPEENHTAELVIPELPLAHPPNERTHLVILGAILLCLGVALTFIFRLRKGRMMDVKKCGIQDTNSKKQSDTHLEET

| SMILES | EC50 (human PD-L1) | IC50 [1] |
| --- | --- | --- |
| COc1nc(-c2cccc(-c3ccnc(-c4ccc5c(c4)N(C)CCN(C[C@H](C)O)C5)c3Cl)c2Cl)ccc1CNC[C@@H]1CCC(=O)N1 [Compound 24, (S)-5-((((6-(2-chloro-3-(3-chloro-2-(4-((S)-2-hydroxypropyl)-1-methyl-2,3,4,5-tetrahydro-1H-benzo[e][1,4]diazepin-8-yl)pyridin-4-yl)phenyl)-2-methoxypyridin-3-yl)methyl)amino)methyl)pyrrolidin-2-one] | 87.2 nM | 0.8 nM |
| COc1nc(-c2cccc(-c3ccnc(-c4ccc5c(c4)OCCN(C[C@H](C)O)C5)c3Cl)c2Cl)ccc1CNC[C@@H]1CCC(=O)N1 [Compound 25, (S)-5-((((6-(2-chloro-3-(3-chloro-2-(4-((S)-2-hydroxypropyl)-2,3,4,5-tetrahydrobenzo[f][1,4]oxazepin-8-yl)pyridin-4-yl)phenyl)-2-methoxypyridin-3-yl)methyl)amino)methyl)pyrrolidin-2-one] | 334 nM | 0.5 nM |
| COc1nc(-c2cccc(-c3ccnc(-c4ccc5c(c4)OCCNC5)c3Cl)c2Cl)ccc1CNC[C@@H]1CCC(=O)N1 [Compound 26, (S)-5-((((6-(2-chloro-3-(3-chloro-2-(2,3,4,5-tetrahydrobenzo[f][1,4]oxazepin-8-yl)pyridin-4-yl)phenyl)-2-methoxypyridin-3-yl)methyl)amino)methyl)pyrrolidin-2-one] | 77.3 nM | 0.2 nM |
| COc1nc(-c2cccc(-c3ccnc(-c4ccc5c(CNC6CCN(C(C)=O)CC6)cn(C)c5c4)c3Cl)c2Cl)ccc1CNC[C@@H]1CCC(=O)N1 [Compound 28, (S)-5-((((6-(3-(2-(3-(((1-acetylpiperidin-4-yl)amino)methyl)-1-methyl-1H-indol-6-yl)-3-chloropyridin-4-yl)-2-chlorophenyl)-2-methoxypyridin-3-yl)methyl)amino)methyl)pyrrolidin-2-one] | 48.4 nM | 1.2 nM |
| COc1nc(-c2cccc(-c3ccnc(-c4ccc5c(CNCCO)cn(C)c5c4)c3Cl)c2Cl)ccc1CNC[C@@H]1CCC(=O)N1 [Compound 29, (S)-5-((((6-(2-chloro-3-(3-chloro-2-(3-(((2-hydroxyethyl)amino)methyl)-1-methyl-1H-indol-6-yl)pyridin-4-yl)phenyl)-2-methoxypyridin-3-yl)methyl)amino)methyl)pyrrolidin-2-one] | 94 nM | 1.1 nM |
| COCCNCc1cn(C)c2cc(-c3nccc(-c4cccc(-c5ccc(CNC[C@@H]6CCC(=O)N6)c(OC)n5)c4Cl)c3Cl)ccc12 [Compound 30, (S)-5-((((6-(2-chloro-3-(3-chloro-2-(3-(((2-methoxyethyl)amino)methyl)-1-methyl-1H-indol-6-yl)pyridin-4-yl)phenyl)-2-methoxypyridin-3-yl)methyl)amino)methyl)pyrrolidin-2-one] | 100 nM | 15.4 nM |
| CNCc1cn(C)c2cc(-c3nccc(-c4cccc(-c5ccc(CNC[C@@H]6CCC(=O)N6)c(OC)n5)c4Cl)c3Cl)ccc12 [Compound 31, (S)-5-((((6-(2-chloro-3-(3-chloro-2-(1-methyl-3-((methylamino)methyl)-1H-indol-6-yl)pyridin-4-yl)phenyl)-2-methoxypyridin-3-yl)methyl)amino)methyl)pyrrolidin-2-one] | 134 nM | 0.3 nM |
| CCNCc1cn(C)c2cc(-c3nccc(-c4cccc(-c5ccc(CNC[C@@H]6CCC(=O)N6)c(OC)n5)c4Cl)c3Cl)ccc12 [Compound 32, (S)-5-((((6-(2-chloro-3-(3-chloro-2-(3-((ethylamino)methyl)-1-methyl-1H-indol-6-yl)pyridin-4-yl)phenyl)-2-methoxypyridin-3-yl)methyl)amino)methyl)pyrrolidin-2-one] | 261 nM | 0.7 nM |
| COc1nc(-c2cccc(-c3ccnc(-c4ccc5c(CN(C)C)cn(C)c5c4)c3Cl)c2Cl)ccc1CNC[C@@H]1CCC(=O)N1 [Compound 33, (S)-5-((((6-(2-chloro-3-(3-chloro-2-(3-((dimethylamino)methyl)-1-methyl-1H-indol-6-yl)pyridin-4-yl)phenyl)-2-methoxypyridin-3-yl)methyl)amino)methyl)pyrrolidin-2-one] | 224 nM | 0.4 nM |
| COc1nc(-c2cccc(-c3ccnc(-c4ccc5c(CNC[C@@H]6CCO6)cn(C)c5c4)c3Cl)c2Cl)ccc1CNC[C@@H]1CCC(=O)N1 [Compound 34, (S)-5-((((6-(2-chloro-3-(3-chloro-2-(1-methyl-3-(((((S)-oxetan-2-yl)methyl)amino)methyl)-1H-indol-6-yl)pyridin-4-yl)phenyl)-2-methoxypyridin-3-yl)methyl)amino)methyl)pyrrolidin-2-one] | 122 nM | 72.1 nM |
| COc1nc(-c2cccc(-c3ccnc(-c4ccc5c(CNC[C@H](C)O)cn(C)c5c4)c3Cl)c2Cl)ccc1CNC[C@@H]1CCC(=O)N1 [Compound 35, (S)-5-((((6-(2-chloro-3-(3-chloro-2-(3-((((S)-2-hydroxypropyl)amino)methyl)-1-methyl-1H-indol-6-yl)pyridin-4-yl)phenyl)-2-methoxypyridin-3-yl)methyl)amino)methyl)pyrrolidin-2-one] | 855 nM | 1.1 nM |
| COc1nc(-c2cccc(-c3ccnc(-c4ccc5c(CNCC(C)(C)O)cn(C)c5c4)c3Cl)c2Cl)ccc1CNC[C@@H]1CCC(=O)N1 [Compound 36, (S)-5-((((6-(2-chloro-3-(3-chloro-2-(3-(((2-hydroxy-2-methylpropyl)amino)methyl)-1-methyl-1H-indol-6-yl)pyridin-4-yl)phenyl)-2-methoxypyridin-3-yl)methyl)amino)methyl)pyrrolidin-2-one] | 82.1 nM | 3.4 nM |
| COc1nc(-c2cccc(-c3ccnc(-c4ccc5c(CNCC(C)C)cn(C)c5c4)c3Cl)c2Cl)ccc1CNC[C@@H]1CCC(=O)N1 [Compound 38, (S)-5-((((6-(2-chloro-3-(3-chloro-2-(3-((isobutylamino)methyl)-1-methyl-1H-indol-6-yl)pyridin-4-yl)phenyl)-2-methoxypyridin-3-yl)methyl)amino)methyl)pyrrolidin-2-one] | 369 nM | 116 nM |
| COc1nc(-c2cccc(-c3ccnc(-c4ccc5c(CN(C)CCO)cn(C)c5c4)c3Cl)c2Cl)ccc1CNC[C@@H]1CCC(=O)N1 [Compound 39, (S)-5-((((6-(2-chloro-3-(3-chloro-2-(3-(((2-hydroxyethyl)(methyl)amino)methyl)-1-methyl-1H-indol-6-yl)pyridin-4-yl)phenyl)-2-methoxypyridin-3-yl)methyl)amino)methyl)pyrrolidin-2-one] | 61.8 nM | 1 nM |
| COc1nc(-c2cccc(-c3ccnc(-c4ccc5c(CNC[C@H](C)OC)cn(C)c5c4)c3Cl)c2Cl)ccc1CNC[C@@H]1CCC(=O)N1 [Compound 40, (S)-5-((((6-(2-chloro-3-(3-chloro-2-(3-((((S)-2-methoxypropyl)amino)methyl)-1-methyl-1H-indol-6-yl)pyridin-4-yl)phenyl)-2-methoxypyridin-3-yl)methyl)amino)methyl)pyrrolidin-2-one] | 4150 nM | 10.3 nM |
